Measurements as given in ChEMBL document CHEMBL3045258, “Benzimidazole, Benzoxazole and Benzothiazole Derivatives as 5HT2B Receptor Ligands. Synthesis and Preliminary Pharmacological Evaluation” (Med Chem Res, 2005).
Calls of active or inactive are those of the source. The rule behind the calls is not given here.

Tests used:
[1] = biological target: T1, 5-hydroxytryptamine receptor 2C (Rattus norvegicus) (UniProt P08909); test: Displacement of [3H]mesulergine from 5-HT2C in Rattus norvegicus CD (rat) […] sections at 10 uM after 1 hr
T1 sequence (whole entry): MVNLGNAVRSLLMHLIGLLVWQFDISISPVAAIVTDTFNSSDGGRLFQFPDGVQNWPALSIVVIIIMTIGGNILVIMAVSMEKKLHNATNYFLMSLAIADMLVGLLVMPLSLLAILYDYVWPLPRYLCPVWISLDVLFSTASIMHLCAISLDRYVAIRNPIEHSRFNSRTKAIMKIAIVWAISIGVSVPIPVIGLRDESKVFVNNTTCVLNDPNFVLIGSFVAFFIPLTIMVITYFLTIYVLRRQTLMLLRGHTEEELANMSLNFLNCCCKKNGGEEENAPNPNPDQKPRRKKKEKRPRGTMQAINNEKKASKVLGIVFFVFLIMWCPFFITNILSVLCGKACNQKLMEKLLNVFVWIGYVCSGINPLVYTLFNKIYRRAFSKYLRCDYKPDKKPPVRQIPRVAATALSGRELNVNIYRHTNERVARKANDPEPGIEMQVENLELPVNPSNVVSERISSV

[2] = biological target: 5-hydroxytryptamine receptor 2A (Rattus norvegicus) (UniProt P14842); test: Displacement of [3H]ketansarin from 5-HT2A in Rattus norvegicus CD (rat) […] sections at 10 uM after 1 hr
5-hydroxytryptamine receptor 2A (Rattus norvegicus), sequence (P14842 whole entry): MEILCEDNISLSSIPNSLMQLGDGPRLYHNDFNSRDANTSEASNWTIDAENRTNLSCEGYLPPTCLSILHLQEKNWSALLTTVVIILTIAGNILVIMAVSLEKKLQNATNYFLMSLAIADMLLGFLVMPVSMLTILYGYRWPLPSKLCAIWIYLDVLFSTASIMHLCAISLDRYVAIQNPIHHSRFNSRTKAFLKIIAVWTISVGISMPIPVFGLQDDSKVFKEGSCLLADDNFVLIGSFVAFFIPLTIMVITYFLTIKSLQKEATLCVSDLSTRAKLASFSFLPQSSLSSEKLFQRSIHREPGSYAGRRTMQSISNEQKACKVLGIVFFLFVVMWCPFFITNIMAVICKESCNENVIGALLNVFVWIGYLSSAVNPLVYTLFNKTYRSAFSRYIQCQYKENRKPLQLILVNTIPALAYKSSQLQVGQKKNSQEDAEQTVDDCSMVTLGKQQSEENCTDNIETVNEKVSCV

[3] = biological target: 5-hydroxytryptamine receptor 2B (Rattus norvegicus) (UniProt P30994); test: Antagonist activity at 5-HT2B in Rattus norvegicus CD (rat) stomach fundus sections assessed as inhibition of serotonin-induced contractile response at 10 '-5 M after 1 hr
5-hydroxytryptamine receptor 2B (Rattus norvegicus), sequence (P30994 whole entry): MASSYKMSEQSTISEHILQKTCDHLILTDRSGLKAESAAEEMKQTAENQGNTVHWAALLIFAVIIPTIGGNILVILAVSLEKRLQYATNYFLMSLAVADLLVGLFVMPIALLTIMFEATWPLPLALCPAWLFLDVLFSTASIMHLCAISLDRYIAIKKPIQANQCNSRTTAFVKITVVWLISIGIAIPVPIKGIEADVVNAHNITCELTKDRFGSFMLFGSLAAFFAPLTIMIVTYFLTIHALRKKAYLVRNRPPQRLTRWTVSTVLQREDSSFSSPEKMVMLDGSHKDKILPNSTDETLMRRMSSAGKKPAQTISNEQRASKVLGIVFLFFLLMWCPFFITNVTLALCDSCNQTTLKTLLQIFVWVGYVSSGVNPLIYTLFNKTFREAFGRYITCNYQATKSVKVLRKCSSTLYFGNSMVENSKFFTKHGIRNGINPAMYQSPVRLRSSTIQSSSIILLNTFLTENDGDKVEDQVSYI

[4] = biological target: 5-hydroxytryptamine receptor 2B (Rattus norvegicus) (UniProt P30994); test: Binding affinity to 5-HT2B in Rattus norvegicus CD (rat) stomach fundus sections after 1 hr
[5] = biological target: 5-hydroxytryptamine receptor 2B (Rattus norvegicus) (UniProt P30994); test: Non-surmountable antagonist activity at 5-HT2B in Rattus norvegicus CD (rat) stomach fundus sections assessed as inhibition of serotonin-induced contractile response after 1 hr

Activity [1] [%]	Activity [2] [%]	inhibition [3]	pKb [4]	inhibition [5]	SMILES
< 5	< 5		5.58	inactive	O=C(Cc1ccccc1)c1cc2ccccc2[nH]1
< 5	< 5		5.25	inactive	OC(Cc1ccccc1)c1nc2ccccc2s1 (configuration not stated)
< 5	< 5		< 5	inactive	O/N=C(\Cc1ccccc1)c1cc2ccccc2[nH]1
< 5	< 5		5.15	inactive	c1ccc(CCc2nc3ccccc3s2)cc1
< 5	< 5		5.29	inactive	c1ccc(CCc2nc3ccccc3[nH]2)cc1
< 5	< 5	inactive	< 5	inactive	OC(Cc1ccccc1)c1nc2ccccc2o1 (configuration not stated)
< 5	< 5		< 5	inactive	OC(Cc1ccccc1)c1cc2ccccc2[nH]1 (configuration not stated)
< 5	< 5		5.16	inactive	OC(Cc1ccccc1)c1nc2ccccc2[nH]1 (configuration not stated)

Continued, compound first:

SMILES	Activity [1] [%]	Activity [2] [%]	inhibition [3]	pKb [4]	inhibition [5]
NCc1nc2ccccc2[nH]1	< 5	< 5	inactive	< 5	inactive
c1ccc(CCc2nc3ccccc3o2)cc1	< 5	< 5		5.23	inactive
NC(Cc1ccccc1)c1nc2ccccc2[nH]1 (configuration not stated)	< 5	< 5	inactive	< 5	inactive
NC(Cc1ccccc1)c1cc2ccccc2[nH]1 (configuration not stated)	< 5	< 5		< 5	inactive
NC(Cc1ccccc1)c1nc2ccccc2s1 (configuration not stated)	< 5	< 5	inactive	< 5	inactive
COc1ccc(CC(O)c2nc3ccccc3o2)cc1OC (configuration not stated)	< 5	< 5		5.1	inactive
CCNC(Cc1ccccc1)c1nc2ccccc2[nH]1 (configuration not stated)	< 5	< 5		5.84	inactive
COc1ccc(CCc2nc3ccccc3o2)cc1OC	< 5	< 5		5.59	inactive
COC(=O)[C@@H]1[C@H]2C[C@H]3c4[nH]c5ccccc5c4CCN3C[C@@H]2CC[C@@H]1O				7.74	
CCNCc1nc2ccccc2[nH]1	< 5	< 5	inactive	< 5	inactive
COc1ccc(CC2NCCc3c2[nH]c2ccccc32)cc1OC (configuration not stated)				9.17	
COc1ccc(CC(O)c2nc3ccccc3[nH]2)cc1OC (configuration not stated)	< 5	< 5	inactive	< 5	inactive
COc1ccc(CCc2nc3ccccc3[nH]2)cc1OC	< 5	< 5		5.84	inactive
COc1ccc(CC(O)c2nc3ccccc3s2)cc1OC (configuration not stated)	< 5	< 5		5.16	inactive
COc1ccc(CCc2nc3ccccc3s2)cc1OC	< 5	< 5		5.61	inactive
